Data taken from the supplement of paper PMC12076712.

How the values were obtained:
Experiment in all cases: pIC50, kinobeads binding competition
EPHA3 = biological target: T1, EPHA3 (UniProt P29320)
T1 sequence (whole entry): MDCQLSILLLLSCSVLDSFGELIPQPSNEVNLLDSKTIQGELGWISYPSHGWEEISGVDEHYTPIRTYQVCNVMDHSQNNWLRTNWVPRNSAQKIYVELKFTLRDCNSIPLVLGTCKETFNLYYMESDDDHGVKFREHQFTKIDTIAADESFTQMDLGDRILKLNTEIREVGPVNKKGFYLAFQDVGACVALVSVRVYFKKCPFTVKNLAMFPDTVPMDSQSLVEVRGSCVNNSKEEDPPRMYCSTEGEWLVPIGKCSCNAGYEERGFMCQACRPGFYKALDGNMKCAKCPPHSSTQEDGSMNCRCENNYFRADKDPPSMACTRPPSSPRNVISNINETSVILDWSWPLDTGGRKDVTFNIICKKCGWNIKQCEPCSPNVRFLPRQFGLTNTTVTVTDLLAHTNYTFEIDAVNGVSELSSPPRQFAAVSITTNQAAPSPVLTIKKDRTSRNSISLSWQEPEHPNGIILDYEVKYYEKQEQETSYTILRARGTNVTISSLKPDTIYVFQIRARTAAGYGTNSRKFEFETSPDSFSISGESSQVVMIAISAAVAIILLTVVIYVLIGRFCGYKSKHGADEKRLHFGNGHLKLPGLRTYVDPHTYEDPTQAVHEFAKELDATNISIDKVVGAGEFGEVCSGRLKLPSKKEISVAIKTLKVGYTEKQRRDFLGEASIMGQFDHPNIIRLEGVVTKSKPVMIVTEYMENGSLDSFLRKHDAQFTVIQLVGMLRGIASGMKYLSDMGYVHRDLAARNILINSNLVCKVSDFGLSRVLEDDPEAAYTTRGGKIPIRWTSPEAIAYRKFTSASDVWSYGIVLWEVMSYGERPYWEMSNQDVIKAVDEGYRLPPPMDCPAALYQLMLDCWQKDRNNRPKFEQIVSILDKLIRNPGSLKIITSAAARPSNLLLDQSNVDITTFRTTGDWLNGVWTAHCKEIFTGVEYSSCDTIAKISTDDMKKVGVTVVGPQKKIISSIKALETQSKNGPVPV
Outline: (§1)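 Either living Jurkat cells (60 min at 37 °C, then lysis) or lysates (60 min at 4 °C) were treated with nine compound concentrations from a top of 30 μM, in 1:4 steps for cells and 1:5 steps for lysates. The lysates were from Jurkat cells or a 1:1:1:1 mix of HEK293, K-562, HepG2 and placenta. Kinobeads-bound proteins were digested and quantified by TMT10 LC-MS/MS. pIC50 was calculated by logistic dose-response fitting (R drc package) of fold changes relative to vehicle, in biological duplicates.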

FGFR3 = FGFR3 (UniProt P22607); conditions: cell material: Lysate mix
Outline: as §1

LRRK2 = LRRK2 (UniProt Q5S007); conditions: cell material: Lysate mix
LRRK2, sequence (Q5S007 whole entry): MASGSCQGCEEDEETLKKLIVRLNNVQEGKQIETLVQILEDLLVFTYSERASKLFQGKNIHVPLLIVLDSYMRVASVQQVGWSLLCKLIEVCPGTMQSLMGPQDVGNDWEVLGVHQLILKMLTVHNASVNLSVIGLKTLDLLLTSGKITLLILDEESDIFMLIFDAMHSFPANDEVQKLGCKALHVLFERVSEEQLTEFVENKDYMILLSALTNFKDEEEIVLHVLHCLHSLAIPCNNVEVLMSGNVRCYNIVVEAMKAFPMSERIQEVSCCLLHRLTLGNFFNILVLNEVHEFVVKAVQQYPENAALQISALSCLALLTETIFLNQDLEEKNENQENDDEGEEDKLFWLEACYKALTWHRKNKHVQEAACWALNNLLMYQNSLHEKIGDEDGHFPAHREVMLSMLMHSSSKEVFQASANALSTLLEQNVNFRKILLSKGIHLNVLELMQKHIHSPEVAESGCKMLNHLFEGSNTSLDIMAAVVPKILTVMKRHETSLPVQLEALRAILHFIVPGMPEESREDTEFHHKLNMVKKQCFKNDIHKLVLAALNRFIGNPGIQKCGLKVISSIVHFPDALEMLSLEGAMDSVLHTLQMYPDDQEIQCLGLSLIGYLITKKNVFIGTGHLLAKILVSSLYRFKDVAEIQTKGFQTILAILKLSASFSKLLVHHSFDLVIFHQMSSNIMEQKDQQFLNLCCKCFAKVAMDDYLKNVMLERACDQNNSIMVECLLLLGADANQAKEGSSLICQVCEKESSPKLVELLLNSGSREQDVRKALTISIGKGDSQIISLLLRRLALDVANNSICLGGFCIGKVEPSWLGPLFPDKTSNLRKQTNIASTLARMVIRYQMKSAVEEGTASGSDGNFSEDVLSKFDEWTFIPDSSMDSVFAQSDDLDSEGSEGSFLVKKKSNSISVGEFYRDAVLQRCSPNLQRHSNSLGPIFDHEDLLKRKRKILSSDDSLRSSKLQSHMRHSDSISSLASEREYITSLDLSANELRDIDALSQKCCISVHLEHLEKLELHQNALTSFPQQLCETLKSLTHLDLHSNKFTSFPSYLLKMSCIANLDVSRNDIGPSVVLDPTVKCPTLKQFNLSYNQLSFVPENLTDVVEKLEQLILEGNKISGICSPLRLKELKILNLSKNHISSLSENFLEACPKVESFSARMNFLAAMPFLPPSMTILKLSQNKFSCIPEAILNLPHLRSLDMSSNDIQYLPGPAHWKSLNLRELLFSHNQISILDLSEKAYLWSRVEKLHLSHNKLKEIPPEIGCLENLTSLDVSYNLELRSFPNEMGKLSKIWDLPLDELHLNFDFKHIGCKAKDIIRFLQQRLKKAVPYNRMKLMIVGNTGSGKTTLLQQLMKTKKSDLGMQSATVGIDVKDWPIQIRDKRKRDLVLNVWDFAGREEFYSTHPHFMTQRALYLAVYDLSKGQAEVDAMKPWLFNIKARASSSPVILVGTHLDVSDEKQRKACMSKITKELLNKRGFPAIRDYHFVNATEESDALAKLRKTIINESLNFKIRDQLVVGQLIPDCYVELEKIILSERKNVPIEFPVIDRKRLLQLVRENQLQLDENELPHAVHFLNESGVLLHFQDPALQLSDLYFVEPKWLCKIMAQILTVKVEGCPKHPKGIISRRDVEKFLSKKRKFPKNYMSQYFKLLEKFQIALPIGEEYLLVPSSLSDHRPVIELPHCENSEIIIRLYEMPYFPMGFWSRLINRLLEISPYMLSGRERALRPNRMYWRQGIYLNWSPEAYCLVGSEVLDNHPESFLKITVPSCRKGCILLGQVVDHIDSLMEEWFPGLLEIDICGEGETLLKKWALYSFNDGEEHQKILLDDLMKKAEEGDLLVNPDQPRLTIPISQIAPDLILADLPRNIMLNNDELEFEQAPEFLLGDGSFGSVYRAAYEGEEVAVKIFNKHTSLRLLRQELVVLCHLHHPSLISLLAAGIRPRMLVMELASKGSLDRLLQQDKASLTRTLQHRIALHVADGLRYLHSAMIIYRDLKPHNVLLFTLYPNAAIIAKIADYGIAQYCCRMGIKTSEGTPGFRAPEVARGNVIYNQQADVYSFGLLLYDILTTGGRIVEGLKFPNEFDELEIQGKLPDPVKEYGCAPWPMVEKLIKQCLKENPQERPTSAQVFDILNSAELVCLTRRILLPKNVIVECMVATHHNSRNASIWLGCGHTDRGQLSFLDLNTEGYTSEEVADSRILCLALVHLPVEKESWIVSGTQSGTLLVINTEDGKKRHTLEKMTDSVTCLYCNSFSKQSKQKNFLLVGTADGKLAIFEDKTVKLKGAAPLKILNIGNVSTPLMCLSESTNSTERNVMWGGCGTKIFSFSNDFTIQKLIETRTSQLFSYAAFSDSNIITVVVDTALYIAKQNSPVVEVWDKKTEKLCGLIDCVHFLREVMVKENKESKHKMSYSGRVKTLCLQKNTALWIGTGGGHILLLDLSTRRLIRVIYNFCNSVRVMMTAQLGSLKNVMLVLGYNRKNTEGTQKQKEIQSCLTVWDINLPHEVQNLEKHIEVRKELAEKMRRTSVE
Outline: as §1

MARK2 = MARK2 (UniProt Q7KZI7)
Outline: as §1

NEK7 = NEK7 (UniProt Q8TDX7)
Outline: as §1

PIP4K2A = biological target: T2, PIP4K2A (UniProt P48426)
T2 sequence (whole entry): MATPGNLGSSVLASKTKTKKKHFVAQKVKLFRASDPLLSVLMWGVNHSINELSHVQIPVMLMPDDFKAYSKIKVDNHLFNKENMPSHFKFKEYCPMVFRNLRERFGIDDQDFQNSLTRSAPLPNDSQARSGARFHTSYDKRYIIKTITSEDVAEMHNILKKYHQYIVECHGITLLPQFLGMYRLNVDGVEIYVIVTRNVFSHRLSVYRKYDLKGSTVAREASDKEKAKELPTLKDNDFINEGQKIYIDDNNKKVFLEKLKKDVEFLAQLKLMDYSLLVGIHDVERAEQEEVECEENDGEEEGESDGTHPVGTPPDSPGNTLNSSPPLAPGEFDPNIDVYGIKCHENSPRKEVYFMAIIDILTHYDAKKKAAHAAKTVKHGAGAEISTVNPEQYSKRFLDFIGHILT
Outline: as §1

UniProt Q02763 = conditions: cell material: Lysate mix
Outline: as §1

UniProt Q15831 = biological target: T3, UniProt Q15831
T3 sequence (whole entry): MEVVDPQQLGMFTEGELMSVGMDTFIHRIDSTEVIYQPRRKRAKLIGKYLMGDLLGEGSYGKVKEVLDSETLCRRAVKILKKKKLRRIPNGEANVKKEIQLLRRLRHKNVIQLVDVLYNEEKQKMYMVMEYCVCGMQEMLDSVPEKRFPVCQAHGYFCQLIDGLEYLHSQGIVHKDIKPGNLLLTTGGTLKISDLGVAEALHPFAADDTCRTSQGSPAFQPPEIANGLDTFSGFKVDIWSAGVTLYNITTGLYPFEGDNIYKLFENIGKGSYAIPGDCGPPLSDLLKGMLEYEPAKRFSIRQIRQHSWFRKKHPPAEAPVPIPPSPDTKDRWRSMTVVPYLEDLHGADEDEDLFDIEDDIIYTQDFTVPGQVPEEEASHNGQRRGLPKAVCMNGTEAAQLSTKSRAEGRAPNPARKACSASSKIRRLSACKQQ
Outline: as §1

UniProt Q9NSY1 = biological target: UniProt Q9NSY1
UniProt Q9NSY1, sequence (Q9NSY1 whole entry, looked up): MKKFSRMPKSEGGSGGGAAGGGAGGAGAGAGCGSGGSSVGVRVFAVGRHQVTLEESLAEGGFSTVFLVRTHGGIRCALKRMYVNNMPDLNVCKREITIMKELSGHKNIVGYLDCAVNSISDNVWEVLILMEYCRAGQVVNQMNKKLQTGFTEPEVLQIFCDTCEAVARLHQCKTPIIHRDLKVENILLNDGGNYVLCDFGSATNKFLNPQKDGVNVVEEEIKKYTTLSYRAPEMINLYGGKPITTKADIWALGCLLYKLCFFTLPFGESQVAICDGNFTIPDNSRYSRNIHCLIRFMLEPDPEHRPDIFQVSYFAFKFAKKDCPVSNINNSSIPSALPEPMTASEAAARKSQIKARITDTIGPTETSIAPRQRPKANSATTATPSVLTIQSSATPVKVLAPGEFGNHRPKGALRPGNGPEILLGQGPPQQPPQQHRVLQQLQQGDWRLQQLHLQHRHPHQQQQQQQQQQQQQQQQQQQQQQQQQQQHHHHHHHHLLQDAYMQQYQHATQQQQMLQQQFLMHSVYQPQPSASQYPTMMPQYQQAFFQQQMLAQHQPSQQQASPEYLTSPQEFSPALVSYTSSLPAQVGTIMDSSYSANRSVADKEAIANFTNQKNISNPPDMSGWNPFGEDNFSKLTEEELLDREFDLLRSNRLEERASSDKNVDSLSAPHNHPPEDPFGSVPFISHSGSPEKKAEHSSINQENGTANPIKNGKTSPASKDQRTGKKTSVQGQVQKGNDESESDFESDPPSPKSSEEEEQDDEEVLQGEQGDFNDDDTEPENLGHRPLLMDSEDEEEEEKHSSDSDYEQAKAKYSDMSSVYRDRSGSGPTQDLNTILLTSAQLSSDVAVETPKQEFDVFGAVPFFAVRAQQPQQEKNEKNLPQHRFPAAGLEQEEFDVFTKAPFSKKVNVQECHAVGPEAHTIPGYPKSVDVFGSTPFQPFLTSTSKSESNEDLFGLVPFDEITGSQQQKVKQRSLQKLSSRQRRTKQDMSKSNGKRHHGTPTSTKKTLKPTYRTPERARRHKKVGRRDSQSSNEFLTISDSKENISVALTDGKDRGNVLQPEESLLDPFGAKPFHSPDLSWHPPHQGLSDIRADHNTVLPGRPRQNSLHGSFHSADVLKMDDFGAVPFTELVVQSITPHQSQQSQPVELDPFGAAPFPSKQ
Outline: as §1

UniProt Q9NYV4 = biological target: UniProt Q9NYV4
UniProt Q9NYV4, sequence (Q9NYV4 whole entry, looked up): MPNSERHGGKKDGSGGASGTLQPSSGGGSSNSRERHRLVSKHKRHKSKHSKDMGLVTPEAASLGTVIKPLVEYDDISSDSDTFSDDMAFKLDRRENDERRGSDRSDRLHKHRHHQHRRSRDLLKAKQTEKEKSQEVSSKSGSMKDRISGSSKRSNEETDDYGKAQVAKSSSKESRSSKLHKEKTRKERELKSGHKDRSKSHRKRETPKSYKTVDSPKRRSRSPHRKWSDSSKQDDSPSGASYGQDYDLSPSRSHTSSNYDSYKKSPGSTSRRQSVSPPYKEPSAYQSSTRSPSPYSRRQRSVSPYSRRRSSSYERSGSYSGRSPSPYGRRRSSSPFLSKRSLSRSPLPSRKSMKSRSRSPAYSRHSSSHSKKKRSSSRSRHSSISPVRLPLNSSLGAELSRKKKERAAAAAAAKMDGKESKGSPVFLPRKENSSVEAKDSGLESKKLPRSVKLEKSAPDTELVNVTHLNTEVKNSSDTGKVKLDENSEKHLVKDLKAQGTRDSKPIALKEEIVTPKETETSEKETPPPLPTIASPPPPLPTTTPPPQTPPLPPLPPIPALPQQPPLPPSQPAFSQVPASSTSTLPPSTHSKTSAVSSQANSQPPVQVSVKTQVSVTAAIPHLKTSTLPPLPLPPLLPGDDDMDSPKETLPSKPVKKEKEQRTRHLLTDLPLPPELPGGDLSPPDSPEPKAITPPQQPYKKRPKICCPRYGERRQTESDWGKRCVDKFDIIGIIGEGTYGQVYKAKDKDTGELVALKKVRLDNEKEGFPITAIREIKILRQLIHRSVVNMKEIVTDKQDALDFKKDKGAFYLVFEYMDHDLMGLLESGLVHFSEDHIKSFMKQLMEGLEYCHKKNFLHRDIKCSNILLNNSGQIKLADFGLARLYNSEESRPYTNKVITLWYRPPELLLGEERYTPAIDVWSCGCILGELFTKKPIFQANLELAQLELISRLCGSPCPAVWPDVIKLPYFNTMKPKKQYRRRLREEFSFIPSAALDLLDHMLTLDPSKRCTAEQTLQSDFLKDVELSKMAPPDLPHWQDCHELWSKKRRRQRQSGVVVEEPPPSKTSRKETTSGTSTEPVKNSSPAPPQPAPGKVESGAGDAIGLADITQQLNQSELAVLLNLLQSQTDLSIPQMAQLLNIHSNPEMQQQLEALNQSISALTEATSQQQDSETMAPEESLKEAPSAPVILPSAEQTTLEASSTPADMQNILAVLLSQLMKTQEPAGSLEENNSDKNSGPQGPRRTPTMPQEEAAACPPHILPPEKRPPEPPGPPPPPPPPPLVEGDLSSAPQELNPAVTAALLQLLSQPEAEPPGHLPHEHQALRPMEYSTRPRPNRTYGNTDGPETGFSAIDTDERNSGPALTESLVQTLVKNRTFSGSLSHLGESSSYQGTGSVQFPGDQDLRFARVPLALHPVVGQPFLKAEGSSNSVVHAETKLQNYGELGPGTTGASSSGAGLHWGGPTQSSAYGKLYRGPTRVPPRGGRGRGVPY
Outline: as §1

Compound	pIC50 (EPHA3; cell material: Jurkat cells)	pIC50 (EPHA3; cell material: Jurkat lysate)	pIC50 (EPHA3; cell material: Lysate mix)	pIC50 (FGFR3)	pIC50 (LRRK2)	pIC50 (MARK2; cell material: Jurkat cells)	pIC50 (MARK2; cell material: Jurkat lysate)	pIC50 (MARK2; cell material: Lysate mix)	pIC50 (NEK7; cell material: Jurkat cells)	pIC50 (NEK7; cell material: Jurkat lysate)	pIC50 (NEK7; cell material: Lysate mix)	pIC50 (PIP4K2A; cell material: Jurkat cells)	pIC50 (PIP4K2A; cell material: Jurkat lysate)	pIC50 (PIP4K2A; cell material: Lysate mix)	pIC50 (UniProt Q02763)	pIC50 (UniProt Q15831; cell material: Jurkat lysate)	pIC50 (UniProt Q15831; cell material: Lysate mix)	pIC50 (UniProt Q9NSY1; cell material: Jurkat cells)	pIC50 (UniProt Q9NSY1; cell material: Jurkat lysate)	pIC50 (UniProt Q9NSY1; cell material: Lysate mix)	pIC50 (UniProt Q9NYV4; cell material: Jurkat cells)	pIC50 (UniProt Q9NYV4; cell material: Jurkat lysate)	pIC50 (UniProt Q9NYV4; cell material: Lysate mix)
O=C(NCCNC(=O)c1cc(Nc2cc(C3CC3)[nH]n2)nc(N2CCN(Cc3ccc(S(=O)(=O)F)cc3)CC2)n1)OC1CC/C=C/CCC1 (centres undefined)	< 4.52	< 4.52	< 4.52	< 4.52	< 4.52	5.04	< 4.52	< 4.52	6.85	< 4.52	< 4.52	< 4.52	< 4.52	< 4.52	< 4.52	< 4.52	< 4.52	< 4.52	< 4.52	< 4.52	5.85	< 4.52	< 4.52
Cc1cc(Nc2cc(C(=O)NCCNC(=O)OC3CC/C=C/CCC3)nc(N3CCN(Cc4ccc(S(=O)(=O)F)cc4)CC3)n2)n[nH]1 (centres undefined)	–	–	< 4.52	< 4.52	< 4.52	–	–	< 4.52	–	–	< 4.52	–	–	< 4.52	< 4.52	–	< 4.52	–	–	< 4.52	–	–	< 4.52
CCNC(=O)c1cc(Nc2cc(C3CC3)[nH]n2)nc(N2CCN(Cc3ccc(S(=O)(=O)F)cc3)CC2)n1	–	–	< 4.52	5.04	5.46	–	–	< 4.52	–	–	< 4.52	–	–	< 4.52	< 4.52	–	5.4	–	–	< 4.52	–	–	4.9
CCNC(=O)c1cc(Nc2cc(C)[nH]n2)nc(N2CCN(Cc3ccc(S(=O)(=O)F)cc3)CC2)n1	–	–	< 4.52	< 4.52	5.28	–	–	< 4.52	–	–	< 4.52	–	–	< 4.52	< 4.52	–	4.61	–	–	< 4.52	–	–	< 4.52
C#CCNC(=O)c1cc(Nc2cc(C3CC3)[nH]n2)nc(N2CCN(Cc3ccc(S(=O)(=O)F)cc3)CC2)n1	–	< 4.52	< 4.52	< 4.52	5.64	5.92	< 4.52	< 4.52	6.88	< 4.52	< 4.52	4.96	< 4.52	< 4.52	< 4.52	5.81	6.42	5.24	< 4.52	< 4.52	6.33	–	5.34
C#CCNC(=O)c1cc(Nc2cc(C)[nH]n2)nc(N2CCN(Cc3ccc(S(=O)(=O)F)cc3)CC2)n1	–	–	< 4.52	< 4.52	5.27	–	–	< 4.52	–	–	< 4.52	–	–	< 4.52	< 4.52	–	4.78	–	–	< 4.52	–	–	< 4.52
